Results: the supplement of paper PMC10307832

compound: Cn1c(=O)n(-c2ccc(C(C)(C)C#N)cc2)c2c3cc(-c4cnc5ccccc5c4)ccc3ncc21 [Dactolisib] + COc1cccc2cc(-c3nc([C@H]4CC[C@H](C(=O)O)CC4)n4ncnc(N)c34)[nH]c12 [OSI-027] (partner 0.5 µM); test: relative viability (nuclei count vs DMSO), 5 days (fraction); higher = more cells survive; conditions: first compound 0.2 µM
Summary of the method: (§1)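 Lung cancer cell lines, seeded in 1536-well plates, were treated the following day by pin tool with a single drug or with five library-drug doses (not always all listed) in √10 steps on top of a fixed anchor-drug dose. Cells were fixed and nuclei stained in one step after 5 days, and nuclei were counted. Relative viability is the nuclei count for treated wells divided by that for vehicle wells, reported as medians of duplicate plates.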

Row | Cell Line | relative viability
1 | NCI-H441 | 0.344
2 | NCI-H1395 | 0.521
3 | NCI-H1793 | 0.157

compound: C1CCC(CC1)N(CCNCCC2=C3C(=C(C=C2)O)NC(=O)CO3)C(=O)CCNCCC4=CC(=C(C=C4)Cl)Cl [AZ505] + CS(=O)(=O)CCNCc1ccc(-c2ccc3ncnc(Nc4ccc(OCc5cccc(F)c5)c(Cl)c4)c3c2)o1 [Lapatinib] (partner 2 µM); test: as above; conditions: first compound 0.08 µM
Summary of the method: as §1

Row | Cell Line | relative viability
4 | NCI-H727 | 0.702
5 | NCI-H1650 | 0.699
6 | EBC-1 | 0.267
7 | NCI-H1703 | 1
8 | NCI-H1993 | 0.838
9 | SK-LU-1 | 0.477
10 | NCI-H838 | 0.941
11 | NCI-H520 | 0.799
12 | NCI-H2126 | 0.758
13 | EMC-BAC-2 | 0.819
14 | NCI-H2085 | 0.67
15 | Calu-6 | 0.925
16 | HCC-366 | 1.01
17 | NCI-H1666 | 0.532
18 | NCI-H596 | 0.977
19 | LK-2 | 0.777
20 | NCI-H2087 | 0.856
21 | SK-MES-1 | 0.406
22 | H3255 | 0.249
23 | COR-L23 | 0.873
24 | COR-L 105 | 0.344
25 | IA-LM | 0.629
26 | LOU-NH91 | 0.753
27 | NCI-H2170 | 0.269
28 | NCI-H2405 | 0.741
29 | HOP-62 | 0.878
30 | A549 | 0.916
31 | NCI-H1395 | 0.949
32 | NCI-H1299 | 0.918
33 | NCI-H1793 | 0.541

same assay, conditions: first compound 0.253 µM

Row | Cell Line | relative viability
34 | NCI-H727 | 0.765
35 | NCI-H1650 | 0.707
36 | EBC-1 | 0.243
37 | NCI-H1703 | 1.26
38 | NCI-H1993 | 0.764
39 | SK-LU-1 | 0.651
40 | NCI-H838 | 0.8
41 | NCI-H520 | 0.828
42 | NCI-H2126 | 0.78
43 | EMC-BAC-2 | 0.905
44 | NCI-H2085 | 0.7
45 | Calu-6 | 1.17
46 | HCC-366 | 1.01
47 | NCI-H1666 | 0.544
48 | NCI-H596 | 0.94
49 | LK-2 | 0.837
50 | NCI-H2087 | 1.01
51 | SK-MES-1 | 0.434
52 | H3255 | 0.235
53 | COR-L23 | 0.987
54 | COR-L 105 | 0.302
55 | IA-LM | 0.935
56 | LOU-NH91 | 0.724
57 | NCI-H2170 | 0.278
58 | NCI-H2405 | 0.766
59 | HOP-62 | 1.22
60 | A549 | 0.931
61 | NCI-H1395 | 0.952
62 | NCI-H1299 | 1.05
63 | NCI-H1793 | 0.524

same assay, conditions: first compound 0.8 µM

Row | Cell Line | relative viability
64 | NCI-H727 | 0.743
65 | NCI-H1650 | 0.794
66 | EBC-1 | 0.194
67 | NCI-H1703 | 1.03
68 | NCI-H1993 | 0.871
69 | SK-LU-1 | 0.578
70 | NCI-H838 | 0.893
71 | NCI-H520 | 0.761
72 | NCI-H2126 | 0.767
73 | EMC-BAC-2 | 0.814
74 | NCI-H2085 | 0.668
75 | Calu-6 | 1.07
76 | HCC-366 | 0.903
77 | NCI-H1666 | 0.531
78 | NCI-H596 | 0.885
79 | LK-2 | 1
80 | NCI-H2087 | 0.983
81 | SK-MES-1 | 0.499
82 | H3255 | 0.268
83 | COR-L23 | 0.878
84 | COR-L 105 | 0.349
85 | IA-LM | 0.912
86 | LOU-NH91 | 0.761
87 | NCI-H2170 | 0.24
88 | NCI-H2405 | 0.773
89 | HOP-62 | 1.08
90 | A549 | 0.966
91 | NCI-H1395 | 0.911
92 | NCI-H1299 | 0.923
93 | NCI-H1793 | 1.04

same assay, conditions: first compound 2.53 µM

Row | Cell Line | relative viability
94 | NCI-H727 | 0.66
95 | NCI-H1650 | 0.742
96 | EBC-1 | 0.19
97 | NCI-H1703 | 1.2
98 | NCI-H1993 | 0.782
99 | SK-LU-1 | 0.537
100 | NCI-H838 | 0.894
101 | NCI-H520 | 0.895
102 | NCI-H2126 | 0.639
103 | EMC-BAC-2 | 0.837
104 | NCI-H2085 | 0.789
105 | Calu-6 | 1.02
106 | HCC-366 | 0.986
107 | NCI-H1666 | 0.614
108 | NCI-H596 | 0.876
109 | LK-2 | 1.05
110 | NCI-H2087 | 1.31
111 | SK-MES-1 | 0.473
112 | H3255 | 0.283
113 | COR-L23 | 0.82
114 | COR-L 105 | 0.339
115 | IA-LM | 0.656
116 | LOU-NH91 | 0.84
117 | NCI-H2170 | 0.263
118 | NCI-H2405 | 0.822
119 | HOP-62 | 1.03
120 | A549 | 0.929
121 | NCI-H1395 | 1.08
122 | NCI-H1299 | 0.897
123 | NCI-H1793 | 0.75

same assay, conditions: first compound 8 µM

Row | Cell Line | relative viability
124 | NCI-H727 | 0.781
125 | NCI-H1650 | 0.909
126 | EBC-1 | 0.219
127 | NCI-H1703 | 1.28
128 | NCI-H1993 | 0.941
129 | SK-LU-1 | 0.712
130 | NCI-H838 | 0.903
131 | NCI-H520 | 0.983
132 | NCI-H2126 | 0.701
133 | EMC-BAC-2 | 0.904
134 | NCI-H2085 | 0.83
135 | Calu-6 | 1.11
136 | HCC-366 | 1.06
137 | NCI-H1666 | 0.518
138 | NCI-H596 | 1.05
139 | LK-2 | 1.03
140 | NCI-H2087 | 0.958
141 | SK-MES-1 | 0.445
142 | H3255 | 0.247
143 | COR-L23 | 0.74
144 | COR-L 105 | 0.372
145 | IA-LM | 0.884
146 | LOU-NH91 | 0.779
147 | NCI-H2170 | 0.275
148 | NCI-H2405 | 0.893
149 | HOP-62 | 0.942
150 | A549 | 0.955
151 | NCI-H1395 | 0.992
152 | NCI-H1299 | 0.978
153 | NCI-H1793 | 0.889

compound: C1CCC(CC1)N(CCNCCC2=C3C(=C(C=C2)O)NC(=O)CO3)C(=O)CCNCCC4=CC(=C(C=C4)Cl)Cl [AZ505] + C[C@@H](Oc1cc(-c2cnn(C3CCNCC3)c2)cnc1N)c1c(Cl)ccc(F)c1Cl [Crizotinib] (partner 1 µM); test: as above; conditions: first compound 0.08 µM
Summary of the method: as §1

Row | Cell Line | relative viability
154 | NCI-H727 | 0.683
